In US9561231B2 (AbbVie Inc., priority 2012, dated 2017):
pEC50, pKi: −log10 of the molar value. Read-outs that look alike come from different tables or passages of the source.

Columns and labels:
[1] = target: T1, first (BD1: amino acids K57-E168) bromodomain of BRD4 (Homo sapiens, UniProt O60885); test: TR-FRET bromodomain binding assay, BRD4 BD1; details: Ki calculated from IC50, probe Kd and probe concentration, read-out: TR-FRET Binding Ki: BRD4 (BDI_K57-E168)
T1 construct: His-tagged first (BD1: amino acids K57-E168)
Method in brief: (§1)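 Compounds were serially diluted in DMSO, diluted into pH 6.0 phosphate buffer with NaCl, EDTA, Triton X-100 and DTT, then combined with His-tagged bromodomain and an Alexa647-labeled BET-inhibitor probe. TR-FRET was read, percent inhibition fitted to give IC50, and Ki derived using probe Kd.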

[2] = tested on: breast cancer cell line MX-1; test: MX-1 cell line proliferation assay (3-day); assay type: cell-based; details: Homo sapiens, MX1, MX-1 cells, Cell Titer Glo, read-out: Cellular proliferation: EC50
Protocol: The impact of compounds of the Examples on cancer cell proliferation was determined using the breast cancer cell line MX-1 (ATCC) in a 3-day proliferation assay. MX-1 cells were maintained in RPMI supplemented with 10% FBS at 37° C. and an atmosphere of 5% CO2. For compound testing, MX-1 cells were plated in 96-well black bottom plates at a density of 5000 cells/well in 90 μL of culture media and incubated at 37° overnight to allow cell adhesion and spreading. Compound dilution series were prepared in DMSO via a 3-fold serial dilution from 3 mM to 0.1 μM. The DMSO dilution series were then diluted 1:100 in phosphate buffered saline, and 10 μL of the resulted solution were added to the appropriate wells of the MX-1 cell plate. The final compound concentrations in the wells were 3, 1, 0.3, 0.1, 0.03, 0.01, 0.003, 0.001, 0.0003 and 0.0001 μM.
Luminescence readings from the Cell Titer Glo assay were normalized to the DMSO treated cells and analyzed using the GraphPad Prism software with sigmoidal curve fitting to obtain EC50s.

[3] = target: T2, second (BD2: amino acids E352-E168) bromodomain of BRD4 (Homo sapiens, UniProt O60885); test: TR-FRET bromodomain binding assay, BRD4 BD2; details: Ki calculated from IC50, probe Kd and probe concentration, read-out: TR-FRET Binding Ki: BRD4 (BDII_E352-M457)
T2 construct: protocol
Method in brief: as §1

[4] = TR-FRET assay protocol (D, E or G) per compound
[5] = TR-FRET assay protocol (A-G, compound concentration range)

CCOc1cc(=O)n(C)cc1-c1cc(S(=O)(=O)CC)ccc1NC1CC1 [Example 373, 5-[2-(cyclopropylamino)-5-(ethylsulfonyl)phenyl]-4-ethoxy-1-methylpyridin-2(1H)-one]
pKi [1, 4]: 6.93 | pEC50 ([2]; 72 hours with compound): 6.07 | pKi [3, 4]: 6.78

COCc1ccc(-c2cc(=O)n(C)nc2-c2ccccc2Oc2ccccc2)cc1 [Example 78, 5-[4-(methoxymethyl)phenyl]-2-methyl-6-(2-phenoxyphenyl)pyridazin-3(2H)-one]
pKi [1, 5]: 6.36 | pEC50 ([2]; 72 h incubation): < 5.52 | pKi [3, 5]: 6.68

CCS(=O)(=O)Nc1ccc(Oc2ccc(F)cc2F)c(-c2cn(C)c(=O)cc2-c2ccoc2)c1 [Example 393, N-{4-(2,4-difluorophenoxy)-3-[4-(furan-3-yl)-1-methyl-6-oxo-1,6-dihydropyridin-3-yl]phenyl}ethanesulfonamide]
pKi [1, 4]: 7.92 | pEC50 ([2]; 72 hours with compound): 7.15 | pKi [3, 4]: 8.60

CC(C)S(=O)(=O)c1ccc(Oc2ccc(F)cc2F)c(-c2ccc(=O)n(C)c2)c1 [Example 364, 5-[2-(2,4-difluorophenoxy)-5-(propan-2-ylsulfonyl)phenyl]-1-methylpyridin-2(1H)-one]
pKi [1, 5]: 7.07 | pEC50 ([2]; 72 h incubation): 6.06 | pKi [3, 5]: 6.82

Cn1nc(-c2cc(CNC(=O)C(F)(F)F)ccc2Oc2ccccc2)ccc1=O [Example 17, 2,2,2-trifluoro-N-[3-(1-methyl-6-oxo-1,6-dihydropyridazin-3-yl)-4-phenoxybenzyl]acetamide]
pKi [1, 5]: 6.29 | pEC50 ([2]; 72 h incubation): 5.58 | pKi [3, 5]: 5.34

CCS(=O)(=O)Nc1ccc(Oc2ccc(F)cc2F)c(-c2cn(C)c(=O)cc2OCC2CCNCC2)c1 [Example 399, N-{4-(2,4-difluorophenoxy)-3-[1-methyl-6-oxo-4-(piperidin-4-ylmethoxy)-1,6-dihydropyridin-3-yl]phenyl}ethanesulfonamide]
pKi [1, 4]: 7.51 | pEC50 ([2]; 72 hours with compound): < 5.52 | pKi [3, 4]: 7.70

CC(=O)Nc1ccc(-c2cc(=O)n(C)nc2-c2ccccc2Oc2ccccc2)cc1 [Example 105, N-{4-[1-methyl-6-oxo-3-(2-phenoxyphenyl)-1,6-dihydropyridazin-4-yl]phenyl}acetamide]
pKi [1, 5]: 6.29 | pEC50 ([2]; 72 h incubation): < 5.52 | pKi [3, 5]: 7.07

CC(=O)Nc1ccc(Oc2ccc(F)cc2F)c(-c2c[nH]c(=O)c(C)c2)c1 [Example 265, N-[4-(2,4-difluorophenoxy)-3-(5-methyl-6-oxo-1,6-dihydropyridin-3-yl)phenyl]acetamide]
pKi [1, 5]: 6.88 | pEC50 ([2]; 72 h incubation): 5.76 | pKi [3, 5]: 6.76

CCOC(=O)C1CCN(c2cc(=O)n(C)nc2-c2ccccc2Oc2ccccc2)C1 (stereo not drawn) [Example 49, ethyl 1-[1-methyl-6-oxo-3-(2-phenoxyphenyl)-1,6-dihydropyridazin-4-yl]pyrrolidine-3-carboxylate]
pKi [1, 5]: 5.18 | pEC50 ([2]; 72 h incubation): 5.15 | pKi [3, 5]: 6.13

CCOc1cc(=O)n(C)cc1-c1cc(NS(=O)(=O)CC)ccc1Oc1cc(F)c(F)c(F)c1 [Example 402, N-[3-(4-ethoxy-1-methyl-6-oxo-1,6-dihydropyridin-3-yl)-4-(3,4,5-trifluorophenoxy)phenyl]ethanesulfonamide]
pKi [1, 4]: 7.49 | pEC50 ([2]; 72 hours with compound): 7.26 | pKi [3, 4]: 7.78

Cn1nc(-c2ccccc2Oc2ccccc2)c(-c2ccc(CNS(C)(=O)=O)cc2)cc1=O [Example 98, N-{4-[1-methyl-6-oxo-3-(2-phenoxyphenyl)-1,6-dihydropyridazin-4-yl]benzyl}methanesulfonamide]
pKi [1, 5]: 6.67 | pEC50 ([2]; 72 h incubation): 6.19 | pKi [3, 5]: 7.15

Cn1ccc(-c2cc(=O)n(C)nc2-c2ccccc2Oc2ccccc2)cc1=O [Example 56, 2-methyl-5-(1-methyl-2-oxo-1,2-dihydropyridin-4-yl)-6-(2-phenoxyphenyl)pyridazin-3(2H)-one]
pKi [1, 5]: 5.54 | pEC50 ([2]; 72 h incubation): 4.98 | pKi [3, 5]: 6.47

Cn1cc(-c2cc(NS(C)(=O)=O)ccc2Oc2ccccc2F)ccc1=O [Example 239, N-[4-(2-fluorophenoxy)-3-(1-methyl-6-oxo-1,6-dihydropyridin-3-yl)phenyl]methanesulfonamide]
pKi [1, 5]: 7.49 | pEC50 ([2]; 72 h incubation): 6.86 | pKi [3, 5]: 7.40

COc1cc(=O)n(C)nc1-c1cc(N)ccc1Oc1ccccc1 [Example 20, 6-(5-amino-2-phenoxyphenyl)-5-methoxy-2-methylpyridazin-3(2H)-one]
pKi [1, 5]: 5.57 | pEC50 ([2]; 72 h incubation): 5.15 | pKi [3, 5]: 6.28

Cn1nc(-c2ccccc2Oc2ccccc2)c(-c2ccc(S(N)(=O)=O)cc2)cc1=O [Example 112, 4-[1-methyl-6-oxo-3-(2-phenoxyphenyl)-1,6-dihydropyridazin-4-yl]benzenesulfonamide]
pKi [1, 5]: 6.86 | pEC50 ([2]; 72 h incubation): 5.89 | pKi [3, 5]: 6.74

CCS(=O)(=O)Nc1ccc(Oc2ccc(F)cc2F)c(-c2cn(C)c(=O)cc2OC(C)C)c1 [Example 289, N-{4-(2,4-difluorophenoxy)-3-[1-methyl-6-oxo-4-(propan-2-yloxy)-1,6-dihydropyridin-3-yl]phenyl}ethanesulfonamide]
pKi [1, 5]: 8.20 | pEC50 ([2]; 72 h incubation): 7.11 | pKi [3, 5]: 9.19

Cn1cc(-c2cc(NS(C)(=O)=O)ccc2Oc2ccccc2C#N)ccc1=O [Example 237, N-[4-(2-cyanophenoxy)-3-(1-methyl-6-oxo-1,6-dihydropyridin-3-yl)phenyl]methanesulfonamide]
pKi [1, 5]: 7.79 | pEC50 ([2]; 72 h incubation): 5.86 | pKi [3, 5]: 6.64

CCNC(=O)Nc1ccc(Oc2ccccc2)c(-c2nn(C)c(=O)cc2OC)c1 [Example 30, 1-ethyl-3-[3-(4-methoxy-1-methyl-6-oxo-1,6-dihydropyridazin-3-yl)-4-phenoxyphenyl]urea]
pKi [1, 5]: < 5.62 | pEC50 ([2]; 72 h incubation): 4.89 | pKi [3, 5]: 5.88

Cn1nc(-c2cc(N)ccc2Oc2ccccc2)ccc1=O [Example 10, 6-(5-amino-2-phenoxyphenyl)-2-methylpyridazin-3(2H)-one]
pKi [1, 5]: 5.61 | pEC50 ([2]; 72 h incubation): 5.43 | pKi [3, 5]: 5.82

Cn1nc(-c2cc(C(N)=O)ccc2Oc2ccccc2)ccc1=O [Example 14, 3-(1-methyl-6-oxo-1,6-dihydropyridazin-3-yl)-4-phenoxybenzamide]
pKi [1, 5]: 5.59 | pEC50 ([2]; 72 h incubation): 4.94 | pKi [3, 5]: 5.91

Cn1cc(-c2cc(NS(C)(=O)=O)ccc2Oc2cccnc2)ccc1=O [Example 234, N-[3-(1-methyl-6-oxo-1,6-dihydropyridin-3-yl)-4-(pyridin-3-yloxy)phenyl]methanesulfonamide]
pKi [1, 5]: 7.67 | pEC50 ([2]; 72 h incubation): 5.89 | pKi [3, 5]: 6.67

CN1CCN(c2ccc(-c3cc(=O)n(C)nc3-c3ccccc3Oc3ccccc3)cc2)CC1 [Example 161, 2-methyl-5-[4-(4-methylpiperazin-1-yl)phenyl]-6-(2-phenoxyphenyl)pyridazin-3(2H)-one]
pKi [1, 5]: 7.58 | pEC50 ([2]; 72 h incubation): 6.61 | pKi [3, 5]: 7.60

Cn1nc(-c2ccccc2Oc2ccccc2)c(-c2cccc(CC#N)c2)cc1=O [Example 193, {3-[1-methyl-6-oxo-3-(2-phenoxyphenyl)-1,6-dihydropyridazin-4-yl]phenyl}acetonitrile]
pKi [1, 5]: 6.78 | pEC50 ([2]; 72 h incubation): 5.89 | pKi [3, 5]: 6.00

CCS(=O)(=O)Nc1ccc(Oc2ccc(F)cc2F)c(-c2cn(C)c(=O)cc2O[C@H]2CC[C@H](N(C)C)CC2)c1 [Example 321, N-[4-(2,4-difluorophenoxy)-3-(4-{[trans-4-(dimethylamino)cyclohexyl]oxy}-1-methyl-6-oxo-1,6-dihydropyridin-3-yl)phenyl]ethanesulfonamide]
pKi [1, 5]: 7.30 | pEC50 ([2]; 72 h incubation): 6.37 | pKi [3, 5]: 8.04

Cn1cc(-c2ccccc2Oc2ccccc2)cc(Cl)c1=O [Example 281, 3-chloro-1-methyl-5-(2-phenoxyphenyl)pyridin-2(1H)-one]
pKi [1, 5]: 6.82 | pEC50 ([2]; 72 h incubation): 5.78 | pKi [3, 5]: 6.29

CNS(=O)(=O)Nc1ccc(Oc2ccccc2)c(-c2ccc(=O)n(C)c2)c1 [Example 230, N-methyl-N′-[3-(1-methyl-6-oxo-1,6-dihydropyridin-3-yl)-4-phenoxyphenyl]sulfuric diamide]
pKi [1, 5]: 7.25 | pEC50 ([2]; 72 h incubation): 6.40 | pKi [3, 5]: 7.32

CCOc1cc(=O)n(C)cc1-c1cc(NS(=O)(=O)c2cccc3ccccc23)ccc1Oc1ccc(F)cc1F [Example 343, N-[4-(2,4-difluorophenoxy)-3-(4-ethoxy-1-methyl-6-oxo-1,6-dihydropyridin-3-yl)phenyl]naphthalene-1-sulfonamide]
pKi [1, 5]: 7.16 | pEC50 ([2]; 72 h incubation): 6.30 | pKi [3, 5]: 7.90
